Measured values as given in the supplement of paper PMC5412046.
Structures can show the parent of a compound that is named as a salt.

How the values were obtained:
SB.mhdgc-1 = test: AC50 for growth inhibition (viability) (log10 M); higher = less potent; conditions: SB.mhdgc-1 (hereditary c.1380delA CDH1 gastric cancer)
How it was run: (§1)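 Values are log half-maximal activity concentrations from four-parameter fits of DMSO-normalised viability, restricted to high-quality curve classes. Patient-derived gastric cancer cells, hereditary or sporadic, were plated at 500 cells per 1536 well in 5 μL medium and given 23 nL compound in DMSO by pintool across 11 threefold dilutions, the top final concentration being 46 μM. Viability was read by ViewLux luminescence after 48 h and a 30 min CellTiter-Glo step at room temperature.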

SB.msgc-1 = test: as above; conditions: SB.msgc-1 (sporadic gastric cancer)
How it was run: as §1

CC(C)C[C@@H](C(=O)N[C@H](C(=O)OC1CCCC1)c1ccccc1)[C@H](O)C(=O)NO [Tosedostat]
AC50 for growth inhibition (log10 M) (SB.mhdgc-1): -5.43
AC50 for growth inhibition (log10 M) (SB.msgc-1): -4.83

CN1C(=O)C(=C/2N(C(=O)N(C3CC3)C(=O)C2=C1/NC4=CC=C(I)C=C4F)C5=CC=CC(=C5)NC(C)=O)\C [Trametinib]
AC50 for growth inhibition (log10 M) (SB.mhdgc-1): -5.03
AC50 for growth inhibition (log10 M) (SB.msgc-1): -6.63

CC(/C=C/C(=O)NO)=C\[C@@H](C)C(=O)c1ccc(N(C)C)cc1 [Trichostatin A]
AC50 for growth inhibition (log10 M) (SB.mhdgc-1): -5.88
AC50 for growth inhibition (log10 M) (SB.msgc-1): -6.13

OC[C@H]1O[C@H](C[C@@H]1O)N2/C=C(C(=O)NC2=O)/C(F)(F)F [Trifluridine]
AC50 for growth inhibition (log10 M) (SB.mhdgc-1): -6.48
AC50 for growth inhibition (log10 M) (SB.msgc-1): -5.78

CC1=CC2=C(O1)C(=C3OC(=O)\C=C(C)/C3=C2)C [Trioxsalen]
AC50 for growth inhibition (log10 M) (SB.mhdgc-1): -5.38
AC50 for growth inhibition (log10 M) (SB.msgc-1): -4.93

CC/1=C(\O)C(=O)\C=C2/C1=C/C=C3\[C@@]2(C)CC[C@@]4(C)[C@@H]5C[C@@](C)(CC[C@]5(C)CC[C@]34C)C(O)=O [Tripterin]
AC50 for growth inhibition (log10 M) (SB.mhdgc-1): -5.58
AC50 for growth inhibition (log10 M) (SB.msgc-1): -5.78

O=C(CCCCCCC(=O)Nc1ccc([C@H]2O[C@@H](CSc3nc(-c4ccccc4)c(-c4ccccc4)o3)C[C@@H](c3ccc(CO)cc3)O2)cc1)NO [Tubacin]
AC50 for growth inhibition (log10 M) (SB.mhdgc-1): -4.73
AC50 for growth inhibition (log10 M) (SB.msgc-1): -4.58

CN1CCc2c(c3ccccc3n2Cc2ccc(C(=O)NO)cc2)C1 [Tubastatin A]
AC50 for growth inhibition (log10 M) (SB.mhdgc-1): -4.63
AC50 for growth inhibition (log10 M) (SB.msgc-1): -4.68

N#CC(=C(/N)Sc1ccccc1N)/C(C#N)=C(\N)Sc1ccccc1N [U-0126]
AC50 for growth inhibition (log10 M) (SB.mhdgc-1): -5.88
AC50 for growth inhibition (log10 M) (SB.msgc-1): -4.73

COc1cc2c(NC3CCN(C(C)C)CC3)nc(C3CCCCC3)nc2cc1OCCCN1CCCC1 [UNC-0638]
AC50 for growth inhibition (log10 M) (SB.mhdgc-1): -5.58
AC50 for growth inhibition (log10 M) (SB.msgc-1): -4.78

C[C@@H]1CC[C@@]2(CC[C@]3(C)\C(=C/C[C@@H]4[C@@]5(C)CC[C@H](O)C(C)(C)[C@@H]5CC[C@@]34C)[C@@H]2[C@H]1C)C(O)=O [Ursolic acid]
AC50 for growth inhibition (log10 M) (SB.mhdgc-1): -4.67
AC50 for growth inhibition (log10 M) (SB.msgc-1): -4.47

COc1cc2c(Nc3ccc(Br)cc3F)ncnc2cc1OCC1CCN(C)CC1 [Vandetanib]
AC50 for growth inhibition (log10 M) (SB.mhdgc-1): -4.68
AC50 for growth inhibition (log10 M) (SB.msgc-1): -4.73

CCCC1=NC(=C2[N]1NC(=N\C2=O)/C3=CC(=CC=C3OCC)[S+]([O-])(=O)N4CCN(CC)CC4)C [Vardenafil]
AC50 for growth inhibition (log10 M) (SB.mhdgc-1): -4.73
AC50 for growth inhibition (log10 M) (SB.msgc-1): -4.83

C[C@@H]\1COC(=N1)\NC2=CC3=C(C=C2)N=CN=C3NC4=CC(=C(OCC5=NC=CS5)C=C4)Cl [Varlitinib tosylate]
AC50 for growth inhibition (log10 M) (SB.mhdgc-1): -6.63
AC50 for growth inhibition (log10 M) (SB.msgc-1): -6.53

CC(=O)O[C@H]1C[C@@H]2CC[C@@H]3[C@H](CC[C@@]4(C)[C@H]3C[C@H]([N+]3(C)CCCCC3)[C@@H]4OC(C)=O)[C@@]2(C)C[C@@H]1N1CCCCC1 [Vecuronium bromide]
AC50 for growth inhibition (log10 M) (SB.mhdgc-1): -5.93
AC50 for growth inhibition (log10 M) (SB.msgc-1): -5.58

COC[C@H](c1ccc(C(F)(F)F)cc1)N1CCN(C2(C)CCN(C(=O)c3c(C)ncnc3C)CC2)C[C@H]1C.O=C(O)/C=C\C(=O)O [Vicriviroc]
AC50 for growth inhibition (log10 M) (SB.mhdgc-1): -5.33
AC50 for growth inhibition (log10 M) (SB.msgc-1): -4.78

COC1=CC(=CC=C1)C2=CC=C(NC(=O)/C3=C(/CCC3)C(O)=O)C(=C2)F [Vidofludimus]
AC50 for growth inhibition (log10 M) (SB.mhdgc-1): -5.33
AC50 for growth inhibition (log10 M) (SB.msgc-1): -4.88

CCOC(=O)\C1=C\[C@]2(CC)CCCN3CCC4=C([C@H]23)[N]1C5=C4C=CC=C5 [Vinpocetine]
AC50 for growth inhibition (log10 M) (SB.mhdgc-1): -4.93
AC50 for growth inhibition (log10 M) (SB.msgc-1): -4.63

Cc1c(O)cccc1C(=O)N[C@@H](CSc1ccccc1)[C@H](O)CN1C[C@H]2CCCC[C@H]2C[C@H]1C(=O)NC(C)(C)C [Viracept]
AC50 for growth inhibition (log10 M) (SB.mhdgc-1): -4.73
AC50 for growth inhibition (log10 M) (SB.msgc-1): -4.73

CC[C@@H]1C(=O)N(C)c2cnc(Nc3ccc(C(=O)NC4CCC(N5CCN(CC6CC6)CC5)CC4)cc3OC)nc2N1C(C)C (some centres not stated) [Volasertib]
AC50 for growth inhibition (log10 M) (SB.mhdgc-1): -5.08
AC50 for growth inhibition (log10 M) (SB.msgc-1): -7.03

O=C(CCCCCCC(=O)Nc1ccccc1)NO [Vorinostat]
AC50 for growth inhibition (log10 M) (SB.mhdgc-1): -5.63
AC50 for growth inhibition (log10 M) (SB.msgc-1): -5.58

C[C@H](NC(=O)/C(C#N)=C/c1cccc(Br)n1)c1ccccc1 [WP-1066]
AC50 for growth inhibition (log10 M) (SB.mhdgc-1): -5.43
AC50 for growth inhibition (log10 M) (SB.msgc-1): -5.48

COC(=O)Nc1ccc(-c2nc(N3CCOCC3)c3cnn(C4CCN(Cc5cccnc5)CC4)c3n2)cc1 [WYE-687]
AC50 for growth inhibition (log10 M) (SB.mhdgc-1): -7.18
AC50 for growth inhibition (log10 M) (SB.msgc-1): -4.68

C=CC(=O)Nc1cccc(Oc2nc(Nc3ccc(N4CCN(C)CC4)cc3)ncc2Cl)c1 [WZ-3146]
AC50 for growth inhibition (log10 M) (SB.mhdgc-1): -5.18
AC50 for growth inhibition (log10 M) (SB.msgc-1): -5.88

C=CC(=O)Nc1cccc(Oc2nc(Nc3ccc(N4CCN(C)CC4)cc3OC)ncc2Cl)c1 [WZ-4002]
AC50 for growth inhibition (log10 M) (SB.mhdgc-1): -4.83
AC50 for growth inhibition (log10 M) (SB.msgc-1): -7.78

C[C@H]([C@H]1C\C(=C(CO)/C(=O)O1)C)[C@H]2CC[C@H]3[C@@H]4C[C@H]5O[C@]56[C@@H](O)\C=C/C(=O)[C@]6(C)[C@H]4CC[C@]23C [Withaferin A]
AC50 for growth inhibition (log10 M) (SB.mhdgc-1): -5.68
AC50 for growth inhibition (log10 M) (SB.msgc-1): -5.78

CCN1CCC(n2cc(CNc3cc(Cl)c4ncc(C#N)c(Nc5ccc(F)c(Cl)c5)c4c3)nn2)CC1 [Wyeth Cot inhibitor-2]
AC50 for growth inhibition (log10 M) (SB.mhdgc-1): -5.03
AC50 for growth inhibition (log10 M) (SB.msgc-1): -4.73

CCOc1cc(N2CCC(O)CC2)ccc1Nc1ncc2c(n1)N(C)c1ccccc1C(=O)N2C [XMD8-92]
AC50 for growth inhibition (log10 M) (SB.mhdgc-1): -5.98
AC50 for growth inhibition (log10 M) (SB.msgc-1): -5.18

Cc1cc(C(=O)N2CCN(c3cccc(Cl)c3)CC2)n(-c2ccccc2)n1 [XRP-44X]
AC50 for growth inhibition (log10 M) (SB.mhdgc-1): -6.38
AC50 for growth inhibition (log10 M) (SB.msgc-1): -5.48

COc1ccc(C(=O)CC2(O)C(=O)Nc3c(Cl)ccc(Cl)c32)cc1 (configuration not stated) [YK-4-279]
AC50 for growth inhibition (log10 M) (SB.mhdgc-1): -5.78
AC50 for growth inhibition (log10 M) (SB.msgc-1): -5.63

CN(C)c1ccc2cc(C(=O)N[C@@H](CCCNC(=N)CCl)C(=O)NCc3ccccc3)ccc2c1 [YW3-56]
AC50 for growth inhibition (log10 M) (SB.mhdgc-1): -4.78
AC50 for growth inhibition (log10 M) (SB.msgc-1): -5.03

FC(F)c1nc2ccccc2n1-c1nc(N2CCOCC2)nc(N2CCOCC2)n1 [ZSTK-474]
AC50 for growth inhibition (log10 M) (SB.mhdgc-1): -6.48
AC50 for growth inhibition (log10 M) (SB.msgc-1): -5.98

CC(C(=O)O)c1ccc2c(c1)CC(=O)c1ccccc1S2 (configuration not stated) [Zaltoprofen]
AC50 for growth inhibition (log10 M) (SB.mhdgc-1): -5.43
AC50 for growth inhibition (log10 M) (SB.msgc-1): -5.13

C\C1=C\N([C@H]2C[C@H](N=[N+]=[N-])[C@@H](CO)O2)C(=O)NC1=O [Zidovudine]
AC50 for growth inhibition (log10 M) (SB.mhdgc-1): -5.03
AC50 for growth inhibition (log10 M) (SB.msgc-1): -4.58

CC(C)N[C@@H]1CCn2c(=O)[nH]c3cccc(c32)[C@H]1O [Zilpaterol]
AC50 for growth inhibition (log10 M) (SB.mhdgc-1): -5.33
AC50 for growth inhibition (log10 M) (SB.msgc-1): -5.63

Cl.Cl.Cl.O[C@@H](COc1cccc2ncccc12)CN1CCN([C@@H]2c3ccccc3[C@@H]3[C@H](c4ccccc42)C3(F)F)CC1 [Zosuquidar trihydrochloride]
AC50 for growth inhibition (log10 M) (SB.mhdgc-1): -4.93
AC50 for growth inhibition (log10 M) (SB.msgc-1): -5.28

ClC1=CC=C2N/C3=N/C(=O)CN3CC2=C1Cl [anagrelide]
AC50 for growth inhibition (log10 M) (SB.mhdgc-1): -4.73
AC50 for growth inhibition (log10 M) (SB.msgc-1): -4.78

CC1=C(/C=C/C(C)=C/C=C/C(C)=C/C=C/C=C(C)/C=C/C=C(C)/C=C/C2=C(C)CCCC2(C)C)C(C)(C)CCC1 [beta-Carotene]
AC50 for growth inhibition (log10 M) (SB.mhdgc-1): -5.13
AC50 for growth inhibition (log10 M) (SB.msgc-1): -4.88

CC1(C)CC\C2=C(/O1)C3=C(C=CC=C3)C(=O)C2=O [beta-Lapachone]
AC50 for growth inhibition (log10 M) (SB.mhdgc-1): -4.58
AC50 for growth inhibition (log10 M) (SB.msgc-1): -4.63

CC/1=C/C(=O)N(O)/C(=C1)C2CCCCC2 [ciclopirox]
AC50 for growth inhibition (log10 M) (SB.mhdgc-1): -4.73
AC50 for growth inhibition (log10 M) (SB.msgc-1): -5.43

C[C@@H]1C[C@@H]([C@H](O)CC2CC(=O)NC(=O)C2)C(=O)[C@@H](C)C1 [cycloheximide]
AC50 for growth inhibition (log10 M) (SB.mhdgc-1): -6.73
AC50 for growth inhibition (log10 M) (SB.msgc-1): -6.53
